# Measured values as given in patent publication US10555987B2, “GHRH agonists for the treatment of ischemic disorders” (UNIVERSITY OF MIAMI, priority 2012, dated 2020).
# Non-standard residues stand in square brackets, D forms with d. Residues, ends and D or L forms follow the SMILES beside them. ξ: configuration not given here. *: point of attachment. Phe(F5) = N[C@@H](Cc1c(F)c(F)c(F)c(F)c1F)C(=O)O; Desaminotyrosyl = O=C(CCc1ccc(O)cc1)*; NMeY = CN[C@@H](Cc1ccc(O)cc1)C(=O)O; Nle = CCCC[C@H](N)C(=O)O; Orn = NCCC[C@H](N)C(=O)O; Abu = CC[C@H](N)C(=O)O; GABA = NCCCC(=O)O; ξA = CC(N)C(=O)O
# Key:
# GH release = assay: In vivo endocrine activity, GH release after subcutaneous administration (Table 9); details: rat, subcutaneous (s.c.) injection
# Experimental: Subcutaneous Administration. Adult male rats were used and anesthetized with pentobarbital (6 mg/100 g, b.w.), by i.p. injection. […] Blood samples were taken from the jugular vein 5, 15 and/or 30 minutes after the injection. The blood samples were centrifuged, plasma was removed and the GH level was measured byELISA. The results are summarized in terms of potency in Table 9.
# GHRH receptor = target: T1, GHRH receptor (Homo sapiens, UniProt Q02643); assay: GHRH receptor binding, competition with 125I-labeled JV-1-42, human pituitary membrane homogenates (Table 7); parameters: Normal human pituitaries were purchased from the National Hormone and Peptide Program; tissue National Hormone and Peptide Program (A.F. Parlow, Harbor-UCLA Medical Center, Torrance, Calif.); host or cells: normal human pituitary, membrane fraction; details: JI-38 = 1, Table 7
# T1 sequence (Q02643 23-423): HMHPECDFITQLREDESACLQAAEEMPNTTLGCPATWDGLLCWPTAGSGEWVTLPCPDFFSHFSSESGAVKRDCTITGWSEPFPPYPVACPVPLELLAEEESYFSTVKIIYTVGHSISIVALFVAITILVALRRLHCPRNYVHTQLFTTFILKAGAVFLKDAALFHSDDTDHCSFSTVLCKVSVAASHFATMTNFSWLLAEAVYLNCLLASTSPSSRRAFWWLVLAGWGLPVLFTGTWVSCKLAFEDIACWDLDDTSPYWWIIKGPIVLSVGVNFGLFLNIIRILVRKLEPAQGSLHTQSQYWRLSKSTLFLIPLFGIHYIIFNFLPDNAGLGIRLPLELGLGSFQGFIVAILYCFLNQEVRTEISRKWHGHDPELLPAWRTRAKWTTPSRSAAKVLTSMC
# Excerpt: Normal human pituitaries were purchased from the National Hormone and Peptide Program (A.F. Parlow, Los Angeles, County Harbor-UCLA Medical Center, Torrance, Calif.).
smiles,measurement,setting,value
"CCCC[C@H](NC(=O)[C@@H](NC(=O)[C@H](CC(=O)O)NC(=O)[C@H](CCC(N)=O)NC(=O)[C@H](CC(C)C)NC(=O)[C@H](CC(C)C)NC(=O)[C@H](CCCN)NC(=O)[C@H](CCCNC(=N)N)NC(=O)[C@H](C)NC(=O)[C@H](CO)NC(=O)[C@H](CC(C)C)NC(=O)[C@H](CCC(N)=O)NC(=O)[C@H](CC)NC(=O)[C@H](CC(C)C)NC(=O)[C@@H](NC(=O)[C@H](CCCN)NC(=O)[C@H](CCCNC(=N)N)NC(=O)[C@H](Cc1ccc(O)cc1)NC(=O)[C@H](CO)NC(=O)[C@H](CC(N)=O)NC(=O)[C@@H](NC(=O)[C@H](Cc1ccccc1)NC(=O)[C@@H](NC(=O)[C@H](C)NC(=O)[C@H](CC(=O)O)NC(=O)[C@@H](C)NC(=O)CCc1ccc(O)cc1)[C@@H](C)CC)[C@@H](C)O)C(C)C)[C@@H](C)CC)C(=O)N[C@@H](CC(=O)O)C(=O)N[C@@H](CCCNC(=N)N)C(=O)NC [Peptide P-27400, [Dat^1, D-Ala^2, Orn^12, Abu^15, Orn^21, Nle^27, Asp^28]hGHRH(1-29)NH—CH3] (Desaminotyrosyl-[dA]DAIFTNSYR[Orn]VL[Abu]QLSAR[Orn]LLQDI[Nle]DR-NHMe)",GH releasing potency relative to JI-38 (=1),GH release; 15 min after,0.47
same,GH releasing potency relative to JI-38 (=1),GH release; 30 min after,0.38
same,Relative affinity (Binding potency) vs JI-38,GHRH receptor,1.30
"CCCC[C@H](NC(=O)[C@@H](NC(=O)[C@H](CC(=O)O)NC(=O)[C@H](CCC(N)=O)NC(=O)[C@H](CC(C)C)NC(=O)[C@H](CC(C)C)NC(=O)[C@H](CCCN)NC(=O)[C@H](Cc1c[nH]cn1)NC(=O)[C@H](C)NC(=O)[C@H](CO)NC(=O)[C@H](CC(C)C)NC(=O)[C@H](CCC(N)=O)NC(=O)[C@H](CC)NC(=O)[C@H](CC(C)C)NC(=O)[C@@H](NC(=O)[C@H](CCCN)NC(=O)[C@H](Cc1c[nH]cn1)NC(=O)[C@H](Cc1ccc(O)cc1)NC(=O)[C@H](CO)NC(=O)[C@H](CCC(N)=O)NC(=O)[C@@H](NC(=O)[C@H](Cc1ccccc1)NC(=O)[C@@H](NC(=O)[C@H](C)NC(=O)[C@H](CC(=O)O)NC(=O)C(C)NC(=O)CCc1ccc(O)cc1)[C@@H](C)CC)[C@@H](C)O)C(C)C)[C@@H](C)CC)C(=O)N[C@@H](CC(=O)O)C(=O)N[C@@H](CCCNC(=N)N)C(=O)NC (stereo partly drawn) [Peptide P-27413, [Dat^1, Gln^8, His^11, Orn^12, Abu^15, His^20, Orn^21, Nle^27, Asp^28]hGHRH(1-29)NH—CH3] (Desaminotyrosyl-[ξA]DAIFTQSYH[Orn]VL[Abu]QLSAH[Orn]LLQDI[Nle]DR-NHMe)",GH releasing potency relative to JI-38 (=1),GH release; 15 min after,0.36
same,GH releasing potency relative to JI-38 (=1),GH release; 30 min after,0.57
same,Relative affinity (Binding potency) vs JI-38,GHRH receptor,1.78
"CCCC[C@H](NC(=O)[C@@H](NC(=O)[C@H](CC(=O)O)NC(=O)[C@H](CCC(N)=O)NC(=O)[C@H](CC(C)C)NC(=O)[C@H](CC(C)C)NC(=O)[C@H](CCCN)NC(=O)[C@H](CCCNC(=N)N)NC(=O)[C@H](C)NC(=O)[C@H](CO)NC(=O)[C@H](CC(C)C)NC(=O)[C@H](CCC(N)=O)NC(=O)[C@H](CC)NC(=O)[C@H](CC(C)C)NC(=O)[C@@H](NC(=O)[C@H](CCCN)NC(=O)[C@H](CCCNC(=N)N)NC(=O)[C@H](Cc1ccc(O)cc1)NC(=O)[C@H](CO)NC(=O)[C@H](CC(N)=O)NC(=O)[C@@H](NC(=O)[C@H](Cc1c(F)c(F)c(F)c(F)c1F)NC(=O)[C@@H](NC(=O)[C@H](C)NC(=O)[C@H](CC(=O)O)NC(=O)[C@@H](C)NC(=O)[C@H](Cc1ccc(O)cc1)NC)[C@@H](C)CC)[C@@H](C)O)C(C)C)[C@@H](C)CC)C(=O)N[C@@H](CO)C(=O)N[C@@H](CCCNC(=N)N)C(=O)NCCCC(=O)NC [Peptide P-27414, [N—Me-Tyr^1, D-Ala^2, Fpa5^6, Orn^12, Abu^15, Orn^21, Nle^27, Gab^30]hGHRH(1-30)NH—CH3] (H-[NMeY][dA]DAI[Phe(F5)]TNSYR[Orn]VL[Abu]QLSAR[Orn]LLQDI[Nle]SR[GABA]-NHMe)",GH releasing potency relative to JI-38 (=1),GH release; 15 min after,1.30
same,GH releasing potency relative to JI-38 (=1),GH release; 30 min after,1.23
same,Relative affinity (Binding potency) vs JI-38,GHRH receptor,2.79
